Test results: patent publication US9708332B2, “Respiratory syncytial virus inhibitors” (MEDIVIR AB, priority 2013, dated 2017)

system: RSV (Long); experiment: RSV cytopathic effect (CPE)-based viral replication assay in HEp-2 cells; details: human respiratory syncytial virus, 72 h; HEp-2 cells infected with RSV Long at MOI 0.015, 3 days, cell viability by CellTiter-Glo; read-out: Ec50 (nM) Example A
Experimental: Compounds of the invention are initially tested in a cytopathic effect (CPE)-based viral replication assay using immortalized cells and a laboratory strain of RSV (Long). This assay evaluates the ability of a compound to inhibit viral replication. Assay plates are prepared by seeding 2,500 HEp-2 cells (ATCC) per well of a 384-well black clear-bottom plate (Greiner Bio-One) in 20 μL of assay media (defined as DMEM supplemented with 2% heat-inactivated fetal bovine serum and 1% Penicillin/Streptomycin). Assay plates are incubated overnight at 37° C. in an incubator containing 5% CO2. The following day, a 10-point serial dilution of test compound is prepared in DMSO. Compounds are subsequently diluted with assay media and 20 μL of diluted compound (containing 1.5% DMSO) is transferred to an assay plate for evaluation of antiviral activity. For the CPE assay, cells are infected at a MOI of 0.015 using 20 μL of RSV Long (ATCC) diluted in assay media. The DMSO concentration is constant throughout the assay plate, including the negative and positive controls. The assay plate is incubated for 3 days at 37° C. in an incubator containing 5% CO2. Cell viability is evaluated with the addition of 10 μL of CellTiter-Glo (ProMega). Luminescence is measured using an EnVision plate reader (Perkin Elmer). EC50 values are calculated using the raw data from the CPE assays, respectively.

| SMILES | EC50 [nM] |
| --- | --- |
| O=c1n(Cc2nc(OCCCO)c3ccccc3n2)c2cnccc2n1C1CC1 [Compound 1002] | 260 |
| N#Cc1ccc2nc(Cn3c(=O)n(C4CC4)c4ccncc43)nc(OCC3CCOC3)c2c1 (stereo not shown) [Compound 1036] | 140 |
| CS(=O)(=O)CCCOc1nc(Cn2c(=O)n(C3CC3)c3ccncc32)nc2cc(Cl)ccc12 [Compound 1065] | 43 |
| O=c1n(Cc2nc(OCCCO)c3ccccc3n2)c2ccccc2n1C1CC1 [Compound 1069] | 1200 |
| Cc1cc2n(Cc3nc(OCC4CCOC4)c4cc(C#N)ccc4n3)c(=O)c3ccccc3n2n1 (stereo not shown) [Compound 1074] | 2.8 |
| O=c1n(Cc2nc(OC3CCOC3)c3ccc(Cl)cc3n2)c2c[n+]([O-])ccc2n1C1CC1 (stereo not shown) [Compound 1104] | 130 |
| O=c1n(Cc2nc(OCC3CCOC3)c3ccccc3n2)c2ncccc2n1C1CC1 (stereo not shown) [compound 1020] | 450 |
| Cc1cc2n(Cc3nc(OCC4CCOC4)c4ccc(Br)cc4n3)c(=O)c3ccccc3n2n1 (stereo not shown) [compound 1047] | 1700 |
| O=c1n(Cc2nc(OCC3CCOC3)c3cccc(Cl)c3n2)c2cnccc2n1C1CC1 (stereo not shown) [compound 1090] | 710 |
| Cc1ncc2n(Cc3nc(OC4CCOC4)c4ccccc4n3)c(=O)c3ccccc3n12 (stereo not shown) [compound 1097] | 93 |
| N#Cc1cc2ccccc2n(Cc2nc(OC3CCOC3)c3ccccc3n2)c1=O (stereo not shown) [compound 1108] | 1600 |
| Cc1cc2n(Cc3nc(N(C)CC4CCOC4)c4ccccc4n3)c(=O)c3ccccc3n2n1 (stereo not shown) [compound 1140] | 26 |
| Cn1c(=O)n(Cc2nc(OCC3CCOC3)c3ccccc3n2)c2ccccc21 (stereo not shown) [compound 1142] | 480 |
| Cc1cc(CN(C)c2nc(Cn3c(=O)n(C4CC4)c4ccncc43)nc3ccccc23)on1 [compound 1163] | 590 |
| Cc1cc(CN(C)c2nc(CN3C(=O)N(C4CC4)Cc4ccccc43)nc3ccccc23)on1 [compound 1164] | 1000 |
| Cc1cc(CN(C)c2nc(Cn3c(=O)c4ccccc4c4ccccc43)nc3ccccc23)on1 [compound 1168] | 280 |
| CN(Cc1cnn(C)c1)c1nc(Cn2c(=O)c3ccccc3n3ncc(C#N)c23)nc2ccccc12 [compound 1179] | 400 |
| Cc1cc2n(Cc3nc(NC(C)c4cnn(C)c4)c4ccccc4n3)c(=O)c3ccccc3n2n1 (stereo not shown) [compound 1180] | 1400 |
| CN(Cc1cnn(C)c1)c1nc(Cn2c(=O)c3ccccc3n3cncc23)nc2ccccc12 [compound 1183] | 470 |
| O=c1c2ccccc2n2nccc2n1Cc1nc(OC2CCOC2)c2ccccc2n1 (stereo not shown) [compound 1198] | 21 |
| CCc1cc2n(Cc3nc(OC4CCOC4)c4ccccc4n3)c(=O)c3ccccc3n2n1 (stereo not shown) [compound 1199] | 8.8 |
| O=c1c2ccccc2n2nncc2n1Cc1nc(OC2CCOC2)c2ccccc2n1 (stereo not shown) [compound 1200] | 29 |
| O=c1n(Cc2nc(OC3CCOC3)c3ccc(Cl)cc3n2)c2ncccc2n1C1CC1 (stereo not shown) [compound 1219] | 200 |

Other lines, results leading:

| EC50 [nM] | SMILES |
| --- | --- |
| 1100 | O=c1n(Cc2nc(CCCCO)c3ccccc3n2)c2ccccc2n1C1CC1 [Compound 1016] |
| 28 | Cc1ccc2c(OCC3CCOC3)nc(Cn3c(=O)n(C4CC4)c4ccncc43)nc2c1 (stereo not shown) [Compound 1034] |
| 6400 | Cn1cc(-c2ccc3c(OCC4CCOC4)nc(Cn4c(=O)n(C5CC5)c5ccncc54)nc3c2)cn1 (stereo not shown) [Compound 1043] |
| 970 | CN(Cc1cnn(C)c1)c1nc(Cn2c(=O)n(C3CC3)c3ccccc32)nc2ccccc12 [compound 1005] |
| 10 | Cc1cc2n(Cc3nc(N(C)Cc4cnn(C)c4)c4ccccc4n3)c(=O)c3ccccc3n2n1 [compound 1027] |
| 600 | O=c1n(Cc2nc(OCC3CCOC3)c3cc(Cl)ccc3n2)c2cnccc2n1C1CC1 (stereo not shown) [compound 1054] |
| 29 | O=c1n(Cc2nc(OC3CCOC3)c3ccc(Cl)cc3n2)c2cnccc2n1C1CC1 (stereo not shown) [compound 1061] |
| 63 | O=c1n(Cc2nc(OC3COC3)c3ccc(Cl)cc3n2)c2cnccc2n1C1CC1 [compound 1068] |
| 16 | Cc1cc2n(Cc3nc(OCC4CCOC4)c4ccccc4n3)c(=O)c3ccccc3n2n1 (stereo not shown) [compound 1070] |
| 280 | O=C1CCCN1CCOc1nc(Cn2c(=O)n(C3CC3)c3ccncc32)nc2cc(Br)ccc12 [compound 1081] |
| 280 | O=c1n(Cc2nc(OCC3CCOC3)c3c(Cl)cccc3n2)c2cnccc2n1C1CC1 (stereo not shown) [compound 1085] |
| 380 | O=c1n(Cc2nc(OCC3CCOC3)c3ccc(Cl)cc3n2)c2cnccc2n1C1CCOCC1 (stereo not shown) [compound 1095] |
| 300 | O=c1n(Cc2nc(OCC3CCOC3)c3ccc(Cl)cc3n2)c2cnccc2n1C1CCS(=O)(=O)C1 (stereo not shown) [compound 1096] |
| 25 | Cc1ncn2c3ccccc3c(=O)n(Cc3nc(OC4CCOC4)c4ccccc4n3)c12 (stereo not shown) [compound 1100] |
| 7700 | CN(CC1CCOC1)c1nc(Cn2ccc3nccn3c2=O)nc2ccccc12 (stereo not shown) [compound 1119] |
| 79 | Cc1c(C#N)c(=O)n(Cc2nc(OC3CCOC3)c3ccccc3n2)c2ccccc12 (stereo not shown) [compound 1204] |
| 6.6 | Cc1cc2n(Cc3nc(OC4CCOC4)c4ccccc4n3)c(=O)c3ccccc3n2n1 (stereo not shown) [compound 1205] |
| 110 | O=c1n(Cc2nc(OC3CCOC3)c3ccccc3n2)c2cnccc2n1C1CC1 (stereo not shown) [compound 1206] |
| 15 | Cc1cc2n(Cc3nc(N(C)Cc4cnn(C)c4)c4ccccc4n3)c(=O)c3ccncc3n2n1 [compound 1212] |
| 31 | COc1cccc2c(=O)n(Cc3nc(N(C)Cc4cnn(C)c4)c4ccccc4n3)c3cc(C)nn3c12 [compound 1215] |
| 380 | O=c1n(Cc2nc(OC3CCOC3)c3ccc(Cl)cc3n2)c2cccnc2n1C1CC1 (stereo not shown) [compound 1218] |
| 170 | O=c1n(Cc2nc(OC3CCOC3)c3ccccc3n2)c2ncccc2n1C1CC1 (stereo not shown) [compound 1221] |
| 490 | O=c1n(Cc2nc(OCC3CCOC3)c3ccccc3n2)c2cccnc2n1C1CC1 (stereo not shown) [compound 1222] |
